For eleven compounds, inhibition results are on record in patent publication US10131653B2, “Heterocyclic compound” (TAKEDA PHARMACEUTICAL COMPANY LIMITED, priority 2015, dated 2018).

Read-outs that look alike come from different tables or passages of the source.

Test [1] addresses T1, human OX1 receptor (Homo sapiens, UniProt O43613).
T1 construct: expressed in transfected cells; host or cells: CHO cells
T1 sequence (O43613 1-425): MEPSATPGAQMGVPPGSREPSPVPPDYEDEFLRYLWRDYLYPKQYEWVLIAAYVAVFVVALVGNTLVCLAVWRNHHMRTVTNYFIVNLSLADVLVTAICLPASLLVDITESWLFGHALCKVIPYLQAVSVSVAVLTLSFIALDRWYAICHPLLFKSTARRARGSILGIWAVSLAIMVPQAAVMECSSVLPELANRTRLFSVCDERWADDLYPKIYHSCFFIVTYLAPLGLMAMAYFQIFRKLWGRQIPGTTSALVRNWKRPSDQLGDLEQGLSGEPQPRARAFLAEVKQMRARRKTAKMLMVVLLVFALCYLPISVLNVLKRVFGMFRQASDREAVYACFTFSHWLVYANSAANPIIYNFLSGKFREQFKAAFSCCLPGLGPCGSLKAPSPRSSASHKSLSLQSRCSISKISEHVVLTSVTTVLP
Nature of the test: Measurement of orexin receptor antagonistic activity (calcium fluorescence, FLIPRtetra). Type of test: cell-based. The settings on record: CHO, read-out: Human Orexin1 receptor inhibition (at 10 μM). On the procedure:
(§1) Measurement of Orexin Receptor Antagonistic Activity
(§2) CHO cells forcibly expressing human OX1 receptor or human OX2 receptor were seeded in each well of 384 well black transparent bottom plate (BD Falcon) at 7,500 cells/well, and cultured for one day in a 5% CO2 incubator at 37° C. […] The plate was stood for 30 min in a 5% CO2 incubator at 37° C., and further stood at room temperature for 30 min. A test compound prepared by diluting with assay buffer B (HBSS, 20 mM HEPES, 0.1% BSA) was added at 10 μL/well, and then OX-A (OX1 receptor, final concentration; 1 nM) or OX-A (OX2 receptor, final concentration; 0.3 nM) was added at 10 μL/well, and the fluorescence value was measured by FLIPRtetra (Molecular Devices) every one sec for 2 min.

The target of test [2] is T2, human OX2 receptor (Homo sapiens, UniProt O43614).
T2 construct: expressed in transfected cells; host or cells: CHO cells
T2 sequence (O43614 1-444): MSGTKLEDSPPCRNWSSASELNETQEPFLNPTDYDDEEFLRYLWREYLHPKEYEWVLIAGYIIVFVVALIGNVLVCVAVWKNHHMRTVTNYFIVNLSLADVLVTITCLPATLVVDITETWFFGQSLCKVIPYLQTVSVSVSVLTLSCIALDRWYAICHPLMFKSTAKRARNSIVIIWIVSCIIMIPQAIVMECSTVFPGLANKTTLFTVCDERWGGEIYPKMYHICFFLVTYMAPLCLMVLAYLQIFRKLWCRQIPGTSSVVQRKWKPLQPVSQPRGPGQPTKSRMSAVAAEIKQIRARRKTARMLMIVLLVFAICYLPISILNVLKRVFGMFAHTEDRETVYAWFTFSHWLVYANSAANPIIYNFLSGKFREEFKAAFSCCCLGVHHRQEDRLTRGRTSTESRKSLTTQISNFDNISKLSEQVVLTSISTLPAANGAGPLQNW
The test is described as above. Type of test: cell-based. The conditions noted are these: CHO, read-out: Human Orexin2 receptor inhibition (at 10 μM). The procedure:
as §1, §2

[3] abbreviates: 10 μM test compound, CHO cells expressing human OX1 receptor, OX-A 1 nM.
The mark [4] stands for this setting: 10 μM test compound, CHO cells expressing human OX2 receptor, OX-A 0.3 nM.

As a reminder, the inhibition is the drop in the measured response relative to a control, in per cent. In the case of `COc1ccc(Cl)cc1C(=O)N1CCON(c2nc(C)cc(C)n2)CC1` [Example 58, (5-chloro-2-methoxyphenyl) (2-(4,6-dimethylpyrimidin-2-yl)-1,2,5-oxadiazepan-5-yl)methanone], the inhibition at 10 µM was determined as 29% in test [1] and 99% in test [2].

Consider `Cc1nc(N2CCN(C(=O)c3cc(F)ccc3-n3nccn3)C[C@H](C)O2)cc(C(F)(F)F)n1` [Example 101, (5-fluoro-2-(2H-1,2,3-triazol-2-yl)phenyl)((7S)-7-methyl-2-(2-methyl-6-(trifluoromethyl)pyrimidin-4-yl)-1,2,5-oxadiazepan-5-yl)methanone], for which the values for the inhibition at 10 µM in test [1] (setting [3]) and in test [2] (setting [4]) were 50% and 101%, respectively.

For the compound `Cc1cc(N2CCN(C(=O)c3ccccc3-c3nc(C)cs3)C[C@H](C)O2)nc(C)n1` [Example 110, ((7S)-2-(2,6-dimethylpyrimidin-4-yl)-7-methyl-1,2,5-oxadiazepan-5-yl)(2-(4-methyl-1,3-thiazol-2-yl)phenyl)methanone], the figures for the inhibition at 10 µM in test [1] (setting [3]) and in test [2] (setting [4]) were 79% and 95%, respectively.

As for `Cc1ccc(C(=O)N2CCN(c3cc(C)nc(C)n3)O[C@@H](C)C2)c(-c2ncccn2)c1` [Example 217, ((7S)-2-(2,6-dimethylpyrimidin-4-yl)-7-methyl-1,2,5-oxadiazepan-5-yl)(4-methyl-2-(pyrimidin-2-yl)phenyl)methanone], the inhibition at 10 µM in test [1] (setting [3]) turned out to be 50%; in test [2] (setting [4]) it was 101%.

In the case of `Cc1cc(N2CCN(C(=O)c3ccc(Br)cc3-n3nccn3)C[C@H](C)O2)nc(C)n1` [Example 205, (4-bromo-2-(2H-1,2,3-triazol-2-yl)phenyl)((7S)-2-(2,6-dimethylpyrimidin-4-yl)-7-methyl-1,2,5-oxadiazepan-5-yl)methanone], the inhibition at 10 µM in test [1] (setting [3]) was 82%; in test [2] (setting [4]), 100%.

In the case of `Cc1cc(N2C[C@H](C)N(C(=O)c3ccccc3-c3nccs3)[C@H](C)CO2)nc(C)n1` [Example 5, ((4S,6R)-2-(2,6-dimethylpyrimidin-4-yl)-4,6-dimethyl-1,2,5-oxadiazepan-5-yl)(2-(1,3-thiazol-2-yl)phenyl)methanone], the inhibition at 10 µM in test [1] (setting [3]) was determined as 101%; in test [2] (setting [4]) it was 99%.

Consider `Cc1cc(N2CCN(C(=O)c3ccccc3C3CCC3)CCO2)nc(C)n1` [Example 21, (2-cyclobutylphenyl) (2-(2,6-dimethylpyrimidin-4-yl)-1,2,5-oxadiazepan-5-yl)methanone], for which the results for the inhibition at 10 µM in test [1] (setting [3]) and in test [2] (setting [4]) were 19% and 99%, respectively.

`COc1ncnc(N2CCN(C(=O)c3ccccc3-n3nccn3)[C@H](C)CO2)n1` [Example 159, ((6R)-2-(4-methoxy-1,3,5-triazin-2-yl)-6-methyl-1,2,5-oxadiazepan-5-yl)(2-(2H-1,2,3-triazol-2-yl)phenyl)methanone]: the inhibition at 10 µM stood at 16% in test [1] (setting [3]) and 89% in test [2] (setting [4]).

For the compound `C[C@H]1CN(C(=O)c2ccccc2-c2nccs2)CCN(c2ccc(Cl)cn2)O1` [Example 90, ((7S)-2-(5-chloropyridin-2-yl)-7-methyl-1,2,5-oxadiazepan-5-yl)(2-(1,3-thiazol-2-yl)phenyl)methanone], the inhibition at 10 µM in test [1] (setting [3]) was found to be 101%; in test [2] (setting [4]) it was 96%.

For the compound `Cc1nc(N2CCN(C(=O)c3cc(F)ccc3-n3nccn3)[C@H](C)CO2)nc(C)c1F` [Example 166, ((6R)-2-(5-fluoro-4,6-dimethylpyrimidin-2-yl)-6-methyl-1,2,5-oxadiazepan-5yl)(5-fluoro-2-(2H-1,2,3-triazol-2-yl)phenyl)methanone], the inhibition at 10 µM in test [1] (setting [3]) was determined as 81%; in test [2] (setting [4]) it was 97%.

For the compound `C[C@H]1CN(C(=O)c2ccccc2-n2nccn2)CCN(c2cc(C(F)(F)F)nc(C3CC3)n2)O1` [Example 97, ((7S)-2-(2-cyclopropyl-6-(trifluoromethyl)pyrimidin-4-yl)-7-methyl-1,2,5-oxadiazepan-5-yl) (2-(2H-1,2,3-triazol-2-yl)phenyl)methanone], the figures for the inhibition at 10 µM in test [1] (setting [3]) and in test [2] (setting [4]) were 95% and 100%, respectively.
